Source: article PMC3852005, “Crystal Structures of the Human G3BP1 NTF2-Like Domain Visualize FxFG Nup Repeat Specificity” (PLoS ONE, 2013)
Where no end group is shown, it is not given here.

T1: G3BP2a NTF2-like domain (G3BP2a 1–139) (Homo sapiens, UniProt Q9UN86)
T1 construct: His6 (thrombin-cleavable) (N, cleaved yes); made in house; host or cells: Escherichia coli BL21(DE3)
T1 sequence (Q9UN86 1-139): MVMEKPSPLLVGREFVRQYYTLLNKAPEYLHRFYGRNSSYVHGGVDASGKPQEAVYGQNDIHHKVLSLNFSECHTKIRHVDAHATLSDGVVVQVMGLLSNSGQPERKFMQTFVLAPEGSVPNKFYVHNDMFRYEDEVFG

T2: FxFG Nup repeat peptide (also: chloride salt)
T2 chain: DSGFSFGSK


Columns and labels:
[1] = molecular target: T3, G3BP1 1–139 Phe15Ala mutant (Homo sapiens, UniProt Q13283, F15A); test: ITC, FxFG peptide binding to G3BP1 1–139 Phe15Ala mutant; settings: ITC (VP-ITC), 0.1 M NaCl and 0.1 M HEPES, pH 8, 20°C, aliquots of 15 µL peptide (4.1 mM) every 360 seconds, single experiment
T3 construct: The expression vector for the G3BP1 1–139 Phe15Ala mutant was produced by GenScript Inc. (USA); His6 (thrombin-cleavable) (N, cleaved yes); made in house; host or cells: Escherichia coli BL21(DE3)
Method: (§1) The three synthetic peptides, GQSPGFGQGGSV (referred to as FG), DSGGLFGSK (GLFG) and DSGFSFGSK (FxFG), were obtained as more than 98% pure lyophilized chloride salts from Caslo Laboratory ApS, Denmark.
Data for the Phe15Ala G3BP1 mutant were collected in a single experiment on a VP-ITC (MicroCal) instrument using buffer conditions as for the wildtype. Aliquots of 15 µL peptide (4.1 mM) were injected into the protein sample every 360 seconds at 20°C.

[2] = molecular target: T4, human G3BP1 NTF2-like domain (G3BP1 1–139) (Homo sapiens, UniProt Q13283); test: ITC, Nup peptide binding to G3BP1 NTF2-like domain (1–139); settings: 0.1 M NaCl and 0.1 M HEPES, pH 8, 25°C, repeated three times; for heat changes on titration (ITC): titration of peptide into G3BP1 1–139, ITC200, aliquots of 2 µL peptide (5.2 mM)
T4 construct: His6 (thrombin-cleavable) (N, cleaved yes); made in house; host or cells: Escherichia coli BL21(DE3)
Method: as §1
(§2) ITC measurements for the wild type NTF2-like domain were performed with an ITC200 titration calorimeter (MicroCal). Data analysis was done using the Origin software. Protein samples were dialyzed against 0.1 M NaCl and 0.1 M HEPES, pH 8, and passed through 0.22 µm centrifugal filter units (Millipore) before the experiments. Peptides were solubilized in the dialysis buffer and the pH adjusted before filtration. In each experiment, aliquots of 2 µL peptide (5.2 mM) were injected into the sample cell every 180 seconds at 25°C. Background measurements were performed with buffer injected into the protein solution and peptides injected into the buffer solution. The concentrations of the peptides were determined by amino acid analysis (Department of Systems Biology, DTU, Denmark). Experiments were repeated three times and the results given as mean ± standard deviation.

[3] = molecular target: T1, G3BP2a NTF2-like domain (G3BP2a 1–139); test: ITC, Nup peptide binding to G3BP2a NTF2-like domain (1–139); settings: 0.1 M NaCl and 0.1 M HEPES, pH 8, 25°C, repeated three times; for heat changes on titration (ITC): titration of peptide into G3BP2a 1–139 (data not shown), ITC200, aliquots of 2 µL peptide (5.2 mM)
Method: as §1, §2

[4] = molecular target: T2, FxFG Nup repeat peptide; test: ITC

T4 sequence (Q13283 1-139): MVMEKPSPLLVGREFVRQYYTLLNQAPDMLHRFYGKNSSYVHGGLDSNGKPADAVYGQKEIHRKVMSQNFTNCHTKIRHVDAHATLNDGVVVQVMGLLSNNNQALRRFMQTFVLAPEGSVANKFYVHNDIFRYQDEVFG
T3 sequence (Q13283 1-139 F15A): as the sequence (Q13283 1-139) above, with F15A counted along it

| Molecule | heat changes on titration (ITC) [2] | heat changes on titration (ITC) [3] | other results |
| --- | --- | --- | --- |
| DSGFSFGSK [FxFG, DSGFSFGSK] |  |  | Kd [1]: 670 µM; Kd ([2]; ITC (ITC200), G3BP1 1–139, aliquots of 2 µL peptide (5.2 mM) every 180 seconds, one-binding-site per chain model, mean ± standard deviation): 115 ± 3 µM; Kd ([3]; ITC (ITC200), G3BP2a NTF2-like domain, aliquots of 2 µL peptide (5.2 mM) every 180 seconds, mean ± standard deviation, data not shown): 114 ± 2 µM |
| DSGGLFGSK [synthetic nucleoporin GLFG repeat peptide, more than 98% pure, from Caslo Laboratory] | did not result in significant heat changes | did not result in significant heat changes |  |
| GQSPGFGQGGSV [synthetic nucleoporin FG repeat peptide, more than 98% pure, from Caslo Laboratory] | did not result in significant heat changes | did not result in significant heat changes |  |
| G3BP2a NTF2-like domain 1-139 (protein) MVMEKPSPLLVGREFVRQYYTLLNKAPEYLHRFYGRNSSYVHGGVDASGKPQEAVYGQNDIHHKVLSLNFSECHTKIRHVDAHATLSDGVVVQVMGLLSNSGQPERKFMQTFVLAPEGSVPNKFYVHNDMFRYEDEVFG |  |  | Kd [4]: 114 µM |
